Where two headings read alike, the source gives them in different places.
What was measured:
Experiment in all cases: Glasshouse assay for herbicidal activity (pre- and post-emergence), percentage phytotoxicity
Assay type in all cases: in vivo
Lolium perenne (LOLPE) = conditions: Lolium perenne, rate 250 g/ha
Method in brief: (§1)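 Visual phytotoxicity score, 0% = undamaged to 100% = total kill, read 20 days after treatment for PRE and 15 days for POST. Pots of standard soil; treatment at day 1 (PRE) or roughly day 12 (POST). Glasshouse: 16 h photoperiod, 65% RH, 24/18 or 20/16 °C by climate type.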

[1] = test system: Echinochloa crus-galli (ECHCG); conditions: Echinochloa crus-galli, rate 250 g/ha
Method in brief: as §1

Avena fatua (AVEFA) = conditions: Avena fatua, rate 250 g/ha
Method in brief: as §1

[2] = test system: Alopecurus myosuroides (ALOMY); conditions: Alopecurus myosuroides, rate 250 g/ha
Method in brief: as §1

[3] = post-emergence, 360 h, POST-emergence, visual score 15 DAA (100%=total damage, 0%=no damage), read-out: Post-emergence herbicidal activity (percentage phytotoxicity) LOLPE POST
[4] = pre-emergence, 480 h, PRE-emergence, visual score 20 DAA (100%=total damage, 0%=no damage), read-out: Pre-emergence herbicidal activity (percentage phytotoxicity) LOLPE PRE
[5] = post-emergence, 360 h, POST-emergence, visual score 15 DAA (100%=total damage, 0%=no damage), read-out: Post-emergence herbicidal activity (percentage phytotoxicity) ECHCG POST
[6] = pre-emergence, 480 h, PRE-emergence, visual score 20 DAA (100%=total damage, 0%=no damage), read-out: Pre-emergence herbicidal activity (percentage phytotoxicity) ECHCG PRE
[7] = post-emergence, 360 h, POST-emergence, visual score 15 DAA (100%=total damage, 0%=no damage), read-out: Post-emergence herbicidal activity (percentage phytotoxicity) AVEFA POST
[8] = pre-emergence, 480 h, PRE-emergence, visual score 20 DAA (100%=total damage, 0%=no damage), read-out: Pre-emergence herbicidal activity (percentage phytotoxicity) AVEFA PRE
[9] = post-emergence, 360 h, POST-emergence, visual score 15 DAA (100%=total damage, 0%=no damage), read-out: Post-emergence herbicidal activity (percentage phytotoxicity) ALOMY POST
[10] = pre-emergence, 480 h, PRE-emergence, visual score 20 DAA (100%=total damage, 0%=no damage), read-out: Pre-emergence herbicidal activity (percentage phytotoxicity) ALOMY PRE

| SMILES | pest or weed control at 250 g/ha (Lolium perenne (LOLPE); [3]) | pest or weed control at 250 g/ha (Lolium perenne (LOLPE); [4]) | pest or weed control at 250 g/ha [1, 5] | pest or weed control at 250 g/ha [1, 6] | pest or weed control at 250 g/ha (Avena fatua (AVEFA); [7]) | pest or weed control at 250 g/ha (Avena fatua (AVEFA); [8]) | pest or weed control at 250 g/ha [2, 9] | pest or weed control at 250 g/ha [2, 10] |
| --- | --- | --- | --- | --- | --- | --- | --- | --- |
| COCCN(CCOC)C(=O)CC1CC(=O)C(c2c(C)cc(-c3ncc(F)cn3)cc2C)C1=O (stereo not drawn) [Compound B281] | 90% | 80% | 100% | 100% | 100% | 80% | 100% | 80% |
| CCNC(=O)CC1CC(=O)C(c2c(C)cc(-c3ncc(Br)cn3)cc2C)C1=O (stereo not drawn) [Compound B282] | 100% | 100% | 100% | 100% | 100% | 100% | 100% | 100% |
| C=C(C)CNC(=O)CC1CC(=O)C(c2c(C)cc(-c3ncc(Br)cn3)cc2C)C1=O (stereo not drawn) [Compound B283] | 100% | 100% | 100% | 100% | 100% | 90% | 100% | 100% |
| Cc1cc(-c2ncc(C#N)cn2)cc(C)c1C1C(=O)CC(CC(=O)NCc2cccc(Cl)c2)C1=O (stereo not drawn) [Compound B284] | 100% | 90% | 100% | 100% | 100% | 70% | 100% | 100% |
| Cc1cc(-c2ncc(Br)cn2)cc(C)c1C1C(=O)CC(CC(=O)N2CCOCC2)C1=O (stereo not drawn) [Compound B285] | 100% | 100% | 100% | 100% | 100% | 90% | 100% | 90% |
| CCNC(=O)CC1CC(=O)C(c2c(C)cc(-c3ncc(C#N)cn3)cc2C)C1=O (stereo not drawn) [Compound B286] | 100% | 90% | 100% | 100% | 100% | 90% | 100% | 100% |
| C=C(C)CNC(=O)CC1CC(=O)C(c2c(C)cc(-c3ncc(C#N)cn3)cc2C)C1=O (stereo not drawn) [Compound B287] | 90% | 90% | 100% | 100% | 100% | 90% | 90% | 90% |
| Cc1cc(-c2ncc(C#N)cn2)cc(C)c1C1C(=O)CC(CC(=O)N2CCOCC2)C1=O (stereo not drawn) [Compound B288] | 90% | 90% | 100% | 90% | 90% | 80% | 100% | 80% |
| Cc1cc(-c2ncc(F)cc2F)cc(C)c1C1C(=O)CC(CC(=O)NC2CC2F)C1=O (stereo not drawn) [Compound B289] | 100% | 100% | 100% | 100% | 100% | 100% | 100% | 100% |
| Cc1cc(-c2ncc(F)cc2F)cc(C)c1C1C(=O)CC(CC(=O)NC/C=C/Cl)C1=O (stereo not drawn) [Compound B290] | 100% | 100% | 100% | 100% | 100% | 100% | 100% | 100% |
| C/C=C/CNC(=O)CC1CC(=O)C(c2c(C)cc(-c3ncc(F)cc3F)cc2C)C1=O (stereo not drawn) [Compound B291] | 90% | 100% | 100% | 100% | 100% | 90% | 90% | 100% |
| Cc1cc(-c2ncc(F)cn2)cc(C)c1C1C(=O)CC(CC(=O)NC2CC2(F)F)C1=O (stereo not drawn) [Compound B292] | 90% | 70% | 100% | 100% | 100% | 90% | 100% | 100% |
| Cc1cc(-c2ncc(F)cn2)cc(C)c1C1C(=O)CC(CC(=O)NC2CC2F)C1=O (stereo not drawn) [Compound B293] | 90% | 90% | 100% | 90% | 100% | 60% | 100% | 90% |
| C=C(F)CNC(=O)CC1CC(=O)C(c2c(C)cc(-c3ncc(F)cn3)cc2C)C1=O (stereo not drawn) [Compound B294] | 100% | 100% | 100% | 100% | 100% | 100% | 100% | 90% |
| Cc1cc(-c2ccc(C#N)cn2)cc(C)c1C1C(=O)CC(CC(=O)NCc2cccc(Cl)c2)C1=O (stereo not drawn) [Compound B295] | 90% | 90% | 100% | 90% | 100% | 60% | 90% | 80% |
| Cc1cc(-c2ccc(Br)cn2)cc(C)c1C1C(=O)CC(CC(=O)NC(C)C)C1=O (stereo not drawn) [Compound B296] | 100% | 90% | 100% | 100% | 100% | 90% | 100% | 90% |
| C#CC(C)(C)NC(=O)CC1CC(=O)C(c2c(C)cc(-c3ccc(Br)cn3)cc2C)C1=O (stereo not drawn) [Compound B297] | 100% | 90% | 100% | 100% | 100% | 90% | 100% | 90% |
| C=C(C)CNC(=O)CC1CC(=O)C(c2c(C)cc(-c3ccc(Br)cn3)cc2C)C1=O (stereo not drawn) [Compound B298] | 90% | 90% | 100% | 100% | 100% | 90% | 100% | 90% |

Reference: patent US10206394B2, “Herbicidal compounds” (Syngenta Participations AG, priority 2014, dated 2019)
